This note sets out measurements from patent publication US6486175B1, “Diester prodrugs of a decahydroisoquinoline-3-carboxylic acid” (Eli Lilly and Company, priority 1999, dated 2002).

Data set [1] is described as follows: Bioavailability in Cynomolgus Monkeys: plasma pharmacokinetics of Compound A after i.v./p.o. dosing. The conditions noted are these: cynomolgus monkey, in vivo. Here is the method: (§1) The following in vivo data, in rats, dogs and monkeys, exemplify the surprising improvement in bioavailability of the diester prodrugs of the present invention over the diacid of 3S,4aR,6S, 8aR-6-(((4-carboxy)phenyl)methyl)1,2,3,4,4a,5,6,7,8,8a-decahydroisoquinoline-3-carboxylic acid. Percent bioavailability is determined using the following equation: [formula]
(§2) wherein AUC represents the area under the curve, p.o. represents oral dose, and i.v. represents intravenous dose.
Four female monkeys were administered an oral and iv dose of compound A (oral: 10 mg/kg; iv: 1 mg/kg) to determine oral bioavailability. The same animals were also administered an oral 10 mg/kg dose of compound B. The plasma concentrations of compound A were determined by LC/MS/MS.
Four female cynomolgus monkeys were given a single iv dose of compound A (1 mg/kg) on day 0, a single oral dose of compound A (10 mg/kg) on day 6 and a single oral dose of compound B (10 mg/kg) on day 10. Blood was collected at 0.5, 1, 2, 3, 4, 5, 6 and 8 hours post dose for oral dosing and 0.167, 0.33, 0.67, 1, 1.5, 2, 3 and 4 hours post dose for iv dosing. Dosing solutions for compound A and compound B were prepared in water. […] Measurable levels of drug (>10 ng/ml) were still present 8 hours post dose. […] Bioavailability was estimated at 34.8%.

Data set [2] in a line: Pharmacokinetic parameters of Compound A in Fischer Rats after a 10 mg/kg dose. The settings on record: rat, iv, plasma Compound A. It counts as in vivo. Here is the method: as §1, §2
Tables 1 and 2 below summarize the pharmacokinetic parameters found for Compounds A and B following 10 mg/kg administration (i.v. or p.o.) to Beagle Dogs and Fischer Rats respectively.

The nature of data set [3]: Bioavailability in Dogs: plasma pharmacokinetics of Compound A after i.v./p.o. dosing. It counts as in vivo. The settings on record: both sexes, dog, iv, Beagle dogs, 10 mg/kg. Here is the method:
as §1, §2
Beagle dogs (2 male and 1 female) were administered an oral and iv dose of 3S,4aR,6S,8aR-6-(((4-carboxy)phenyl)methyl)-1,2,3,4,4a,5,6,7,8,8a-decahydroisoquinoline-3-carboxylic acid (10 mg/kg) to determine oral bioavailability. The same three dogs were also administered an oral 10 mg/kg dose of compound 3S,4aR,6S,8aR-6-(((4-carboxy)phenyl)methyl)-1,2,3,4,4a,5,6,7,8,8a-decahydroisoquinoline-3-carboxylic acid, diethyl ester, to determine whether the prodrug would increase bioavailability. The plasma concentrations of 3S,4aR,6S,8aR-6-(((4-carboxy)phenyl)methyl)-1,2,3,4,4a,5,6,7,8,8a-decahydroisoquinoline-3-carboxylic acid were determined by LC/MS/MS. […]

Molecules are shown by their SMILES.

For orientation: AUC means concentration integrated over time. A higher AUC goes with more exposure. Broadly, the Cmax is the highest concentration seen after dosing. The half-life is how long it takes for the measured level to halve. A high value points to slow loss. By Tmax is commonly meant the time at which the peak concentration occurs. With `O=C(O)c1ccc(C[C@H]2CC[C@H]3CN[C@H](C(=O)O)C[C@H]3C2)cc1` [Compound A, 3S,4aR,6S,8aR-6-(((4-carboxy)phenyl)methyl)-1,2,3,4,4a,5,6,7,8,8a-decahydroisoquinoline-3-carboxylic acid], the “levels of drug in plasma at 0.5 hr” value in data set [1] (po, 10 mg/kg) was “measurable levels of drug were detected”. In data set [1] (female, iv, 1 mg/kg), this molecule gave an AUC of 1190 ng·h/mL, a Cmax of 1920 ng/mL, a clearance of 14 mL/min/kg and a half-life of 42 min. Besides, in data set [1] (female, po, 10 mg/kg), the “% Bioavail” value was determined as 11.1%, the AUC is listed as 1,320 ng hr/mL, the Cmax came to 127 ng/mL and the Improvement came out at 1 X. Moreover, in data set [1] (female, po, 10 mg/kg), the Tmax worked out at 60 min and the concentration at 8 h is above 10 ng/mL. In data set [2], this molecule came in with an AUC of 2410 ng·h/mL and a Cmax of 6280 ng/mL. In data set [3], this molecule gave an AUC of 41400 ng·h/mL and a Cmax of 28800 ng/mL.
In the case of `CCOC(=O)c1ccc(C[C@H]2CC[C@H]3CN[C@H](C(=O)OCC)C[C@H]3C2)cc1.Cl` [Compound B, 3S,4aR,6S, 8aR-6-(((4-carboxy)phenyl)methyl)-1,2,3,4,4a,5,6,7,8,8a-decahydroisoquinoline-3-carboxylic acid HCl, diethyl ester], the “plasma levels of compound B (unchanged prodrug)” value in data set [1] (po, 10 mg/kg) is reported as “No detectable plasma levels”. Also, in data set [1] (female, po, 10 mg/kg), the “% Bioavail” value stood at 34.8%, the AUC is 4,149 ng hr/mL, the Improvement is listed as 3.1X and the “increase in the bioavailability” value was 3.1 fold.
